The source of these data is ChEMBL document CHEMBL1201862, “PubChem BioAssay data set” (2004).

For experiment [1], the target named is T1, Aminopeptidase N (Plasmodium falciparum FcB1/Columbia, UniProt O96935).
T1 sequence (O96935 whole entry): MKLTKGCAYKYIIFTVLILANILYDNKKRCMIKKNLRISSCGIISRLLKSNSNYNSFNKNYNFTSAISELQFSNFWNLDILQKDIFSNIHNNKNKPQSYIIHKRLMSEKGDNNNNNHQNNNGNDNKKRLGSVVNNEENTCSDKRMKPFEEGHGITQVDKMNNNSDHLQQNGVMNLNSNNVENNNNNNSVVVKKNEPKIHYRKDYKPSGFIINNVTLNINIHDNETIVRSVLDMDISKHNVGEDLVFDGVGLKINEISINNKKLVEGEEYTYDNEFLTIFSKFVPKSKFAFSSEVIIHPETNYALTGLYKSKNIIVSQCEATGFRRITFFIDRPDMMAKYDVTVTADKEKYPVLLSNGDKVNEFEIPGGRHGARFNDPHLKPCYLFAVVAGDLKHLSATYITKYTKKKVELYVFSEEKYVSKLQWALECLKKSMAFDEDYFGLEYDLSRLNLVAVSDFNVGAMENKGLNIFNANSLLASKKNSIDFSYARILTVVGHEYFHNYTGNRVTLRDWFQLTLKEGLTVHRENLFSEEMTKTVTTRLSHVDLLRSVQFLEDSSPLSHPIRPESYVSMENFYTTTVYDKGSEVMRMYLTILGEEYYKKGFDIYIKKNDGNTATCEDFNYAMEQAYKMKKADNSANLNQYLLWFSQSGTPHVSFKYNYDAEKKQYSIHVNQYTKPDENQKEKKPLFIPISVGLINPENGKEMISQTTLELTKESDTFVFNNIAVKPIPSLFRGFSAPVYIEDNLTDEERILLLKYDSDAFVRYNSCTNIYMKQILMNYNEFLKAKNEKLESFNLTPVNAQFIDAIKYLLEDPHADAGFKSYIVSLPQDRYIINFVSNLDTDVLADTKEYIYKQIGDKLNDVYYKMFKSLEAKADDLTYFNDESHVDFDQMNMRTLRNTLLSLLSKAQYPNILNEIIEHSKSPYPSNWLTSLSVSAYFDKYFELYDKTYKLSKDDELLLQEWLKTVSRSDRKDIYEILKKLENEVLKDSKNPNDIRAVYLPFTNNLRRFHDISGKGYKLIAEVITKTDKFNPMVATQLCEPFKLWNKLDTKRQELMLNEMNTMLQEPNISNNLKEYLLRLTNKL
As to the kind of experiment: P. falciparum M1AAP inhibitors, biochemical, fluorogenic H-Leu-NHMec substrate, 1536-well (AID 1445). The arrangement: species or system Plasmodium falciparum 3D7, 3D7.

Experiment [2] can be described thus: cells.
Experiment [3] addresses SUMO-activating enzyme (Homo sapiens, UniProt Q9UBT2). The experiment can be described thus: SUMOylation inhibitor hit validation, confirmation, SUMOylation inhibitor project, biochemical, AlphaScreen (AID 2018). The format is functional. For orientation: In Alpha technology, singlet oxygen from a donor bead excites a nearby acceptor bead.
Experiment [4] has as its target T2, Sentrin-specific protease 8 (Homo sapiens, UniProt Q96LD8).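 Note: kinetic enzyme assay of SENP8 cleaving a Nedd8 protein substrate, dose-response confirmation of screening hits.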
T2 sequence (Q96LD8 whole entry): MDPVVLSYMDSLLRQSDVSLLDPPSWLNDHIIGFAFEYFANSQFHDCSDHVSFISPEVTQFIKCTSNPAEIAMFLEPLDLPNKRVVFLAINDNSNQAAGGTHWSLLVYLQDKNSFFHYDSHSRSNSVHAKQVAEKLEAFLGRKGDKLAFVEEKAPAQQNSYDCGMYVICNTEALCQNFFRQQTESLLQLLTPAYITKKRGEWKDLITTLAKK
In kind it is functional.

Experiment [5] deals with Troponin, cardiac muscle (Homo sapiens, UniProt P19429+P45379+P63316). As to the kind of experiment: inhibitors of cardiac thin filament calcium sensitivity, dose response, biochemical, fluorescence, cardiac regulated thin filaments, triplicate IC50 (AID 504742). In kind it is protein-complex assay.
Experiment [6] deals with T3, Tyrosine-protein phosphatase non-receptor type 7 (Homo sapiens, UniProt P35236).
T3 sequence (P35236 whole entry): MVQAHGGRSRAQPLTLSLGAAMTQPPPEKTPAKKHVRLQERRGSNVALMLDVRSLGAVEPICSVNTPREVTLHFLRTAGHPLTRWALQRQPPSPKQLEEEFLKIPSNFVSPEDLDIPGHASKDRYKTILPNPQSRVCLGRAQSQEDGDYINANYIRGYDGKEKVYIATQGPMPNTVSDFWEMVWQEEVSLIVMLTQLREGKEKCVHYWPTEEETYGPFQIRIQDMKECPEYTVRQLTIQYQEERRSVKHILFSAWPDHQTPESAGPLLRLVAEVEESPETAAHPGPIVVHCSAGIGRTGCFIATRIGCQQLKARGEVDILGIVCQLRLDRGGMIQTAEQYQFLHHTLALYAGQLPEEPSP
In kind it is functional.

Experiment [7] addresses RAC-gamma serine/threonine-protein kinase (Homo sapiens, UniProt Q9Y243). The format is functional.
In experiment [8] the target is Proto-oncogene tyrosine-protein kinase Src (Homo sapiens, UniProt P12931). The format is functional.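 Note: SRC entry within a kinome-wide kinase profiling panel.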
Experiment [9] has as its target Serine/threonine-protein kinase D2 (Homo sapiens, UniProt Q9BZL6). The format is functional.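 Note: measured against PRKD2 as one member of a kinome-wide kinase profiling panel.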
Experiment [10] deals with Fibroblast growth factor receptor 1 (Homo sapiens, UniProt P11362). In kind it is functional.
Experiment [11] concerns the target MAP kinase-activated protein kinase 3 (Homo sapiens, UniProt Q16644). In kind it is functional.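 Note: value comes from a kinome-wide profiling panel in which MAPKAPK3 is one of the panel members.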
The target in experiment [12] is Cell division cycle 7-related protein kinase (Homo sapiens, UniProt O00311). In kind it is functional.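 Note: value obtained from a kinome-wide kinase panel.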
Experiment [13] deals with STE20-like serine/threonine-protein kinase (Homo sapiens, UniProt Q9H2G2). In kind it is functional.
Experiment [14] has as its target Vascular endothelial growth factor receptor 2 (Homo sapiens, UniProt P35968). In kind it is functional.
Experiment [15] concerns the target Serine/threonine-protein kinase Chk1 (Homo sapiens, UniProt O14757). The format is functional.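 Note: measured as one member of a kinome-wide kinase profiling panel.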
In experiment [16] the target is Mitogen-activated protein kinase kinase kinase 20 (Homo sapiens, UniProt Q9NYL2). The format is functional.
Experiment [17] has as its target Protein-tyrosine kinase 2-beta (Homo sapiens, UniProt Q14289). The format is functional.
Experiment [18] concerns the target SRSF protein kinase 1 (Homo sapiens, UniProt Q96SB4). In kind it is functional.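 Note: measured as one member of a kinome-wide kinase profiling panel.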
For experiment [19], the target named is Serine/threonine-protein kinase Chk2 (Homo sapiens, UniProt O96017). The format is functional.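 Note: CHEK2 entry within a kinome-wide screening panel.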
In experiment [20] the target is MAP kinase-interacting serine/threonine-protein kinase 2 (Homo sapiens, UniProt Q9HBH9). In kind it is functional.
The target in experiment [21] is Serine/threonine-protein kinase BRSK1 (Homo sapiens, UniProt Q8TDC3). In kind it is functional.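 Note: measured within a kinome-wide kinase panel, with the target listed as KIAA1811.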
Experiment [22] addresses Serine/threonine-protein kinase Nek4 (Homo sapiens, UniProt P51957). The format is functional.

Active and inactive are the calls of the source.
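Throughout, for EC50: HEK293 cells transfected with hcDAF12 and a DAF12 luciferase reporter; potency of agonists activating the hcDAF12 luciferase reporter.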

As for `O=C1N=C(NS(=O)(=O)Cc2ccccc2)S/C1=C1\C(=O)Nc2ccccc21`, the IC50 in experiment [1] is 17.4 µM (active).

For `Clc1ccc2nc(-c3ccc(Br)s3)cn2c1`, the EC50 in experiment [2] was > 67.5 µM (inactive).

`CC(=O)NC1C(=O)N(CCN2CCOCC2)c2ccc(F)cc21` (centres undefined): the IC50 in [3] is 5.82 µM (active).

Consider `O=C(CCc1ccccc1)NNc1cc(N2CCCCC2)nc(N2CCCCC2)n1`, for which the IC50 in experiment [4] was 1.01 µM (active).

For `O=C(O)C1Nc2c(O)cc(Cl)c([N+](=O)[O-])c2C2C=CCC12` (centres undefined), the IC50 in experiment [5] is 11 µM (inactive); in experiment [6] it was 3.84 µM (active).

Consider `Cc1n[nH]c2ccc(-c3cncc(OCC(N)Cc4cccc(Cl)c4)c3)cc12` (centres undefined), for which the Ki in [7] is 0.00501 µM (active); in experiment [8], > 2 µM (inactive); in [9] it was 0.0398 µM (active); in experiment [10] it was 5.01 µM (active); in experiment [11], > 10 µM (inactive); in experiment [12], 0.000794 µM (active). Moreover, the Ki in experiment [13] was 1 µM (active); in experiment [14], 3.98 µM (active); in experiment [15], 6.31 µM (active); in [16], 7.94 µM (active); in experiment [17], 0.501 µM (active); in experiment [18], > 5.01 µM (inactive). In addition, the inhibition constant Ki in experiment [19] was 0.631 µM (active); in experiment [20], 0.316 µM (active); in experiment [21], 1.58 µM (active); in [22], 0.251 µM (active). The pKi is recorded as 8.3 in experiment [7] and 9.1 in experiment [12].

For orientation: IC50 means the concentration that gives 50% inhibition. By EC50 is commonly meant the concentration needed to bring the measured effect to its halfway point. By Ki is commonly meant the dissociation constant of the complex between target and ligand, obtained from inhibition or displacement. Usually pKi stands for the Ki on a negative log10 scale, so that one unit is a factor of ten. Low values mean a high Ki, high ones a low Ki.
